The target of experiment [1] is human BACE1 (1-460):Fc (Homo sapiens (Human), UniProt P56817). In words: BACE1 FRET Assay. In kind it is biochemical. The note with it: purified recombinant huBACE1:Fc, FRET substrate, pH 4.6; Mean ± SEM. Here is the method: For in vitro enzymatic and cellular assays, test compounds are prepared in DMSO to make up a 10 mM stock solution. The stock solution is serially diluted in DMSO to obtain a ten-point dilution curve with final compound concentrations ranging from 10 μM to 0.05 nM in a 96-well round-bottom plate before conducting the in vitro enzymatic and whole cell assays.
Human BACE1 (accession number: AF190725) is cloned from total brain cDNA by RT-PCR. The nucleotide sequences corresponding to amino acid sequences #1 to 460 are inserted into the cDNA encoding human IgG1 (Fc) polypeptide (Vassar et al., Science, 286, 735-742 (1999)). This fusion protein of BACE1 (1-460) and human Fc, named huBACE1:Fc, is constructed into the pJB02 vector. Human BACE1 (1-460):Fc (huBACE1:Fc) is transiently expressed in HEK293 cells. 250 μg cDNA of each construct is mixed with Fugene 6 and added to 1 liter HEK293 cells. Four days after the transfection, conditioned media are harvested for purification. huBACE1:Fc is purified by Protein A chromatography. The enzyme is stored at −80° C. in small aliquots. (See Yang, et. al., J. Neurochemistry, 91(6) 1249-59 (2004)
Serial dilutions of test compounds are prepared as described above. Compounds are further diluted 20× in KH2PO4 buffer. Ten μL of each dilution is added to each well on row A to H of a corresponding low protein binding black plate containing the reaction mixture (25 μL of 50 mM KH2PO4, pH 4.6, 1 mM TRITON® X-100, 1 mg/mL Bovine Serum Albumin, and 15 μM of FRET substrate) (See Yang, et. al., J. Neurochemistry, 91(6) 1249-59 (2004)). The content is mixed well on a plate shaker for 10 minutes. Fifteen μL of two hundred pM human BACE1 (1-460):Fc (See Vasser, et al., Science, 286, 735-741 (1999)) in the KH2PO4 buffer is added to the plate containing substrate and test compounds to initiate the reaction. The RFU of the mixture at time 0 is recorded at excitation wavelength 355 nm and emission wavelength 460 nm, after brief mixing on a plate shaker. The reaction plate is covered with aluminum foil and kept in a dark humidified oven at room temperature for 16 to 24 h. The RFU at the end of incubation is recorded with the same excitation and emission settings used at time 0. The difference of the RFU at time 0 and the end of incubation is representative of the activity of BACE1 under the compound treatment. RFU differences are plotted versus inhibitor concentration and a curve is fitted with a four-parameter logistic equation to obtain the IC50 values. (May, et al., Journal of Neuroscience, 31, 16507-16516 (2011)).

Experiment [2] has as its system Abeta released by primary cortical neurons from PDAPP transgenic embryonic mice. Nature of the experiment: PDAPP Primary Neuronal Assay (Abeta 1-40 and 1-42 sandwich ELISAs). The class given is cell-based. The note with it: Mus musculus, Primary cortical neuron, 24 h incubation. Here is the method: For in vitro enzymatic and cellular assays, test compounds are prepared in DMSO to make up a 10 mM stock solution. […] A confirmatory whole cell assay is also run in primary neuronal cultures generated from PDAPP transgenic embryonic mice (May, et al., Journal of Neuroscience, 31, 16507-16516 (2011)). Primary cortical neurons are prepared from Embryonic Day 16 PDAPP embryos and cultured in 96 well plates (15×10^4 cells/well in DMEM/F12 (1:1) plus 10% FBS). After 2 days in vitro, culture media is replaced with serum free DMEM/F12 (1:1) containing B27 supplement and 2 μM (final) of Ara-C (Sigma, C1768). At day 5 in vitro, neurons are incubated at 37° C. for 24 h in the presence/absence of inhibitors (diluted in DMSO) at the desired concentration. […] Natl. Acad. Sci. USA 94, 1550-1555 (1997)). The concentration of Abeta released in the conditioned media following the compound treatment corresponds to the activity of BACE1 under such conditions.

The subject of experiment [3] is Abeta 1-x peptide levels in brain of young female PDAPP mice. Nature of the experiment: In vivo Inhibition of Beta-Secretase (brain Abeta 1-x in PDAPP mice). As to conditions: three hours after dosing, compared to vehicle-treated mice. On the set-up: species or system mouse. From the text: Several animal models, including mouse, guinea pig, dog, and monkey, may be used to screen for inhibition of beta-secretase activity in vivo following compound treatment Animals used in this invention can be wild type, transgenic, or gene knockout animals. […] One to twenty-four hours following the administration of compound, animals are sacrificed, and brains are removed for analysis of Abeta 1-x. “Abeta 1-x” as used herein refers to the sum of Abeta species that begin with residue 1 and end with a C-terminus greater than residue 28. This detects the majority of Abeta species and is often called “total Abeta”. Total Abeta peptides (Abeta 1-x) levels are measured by a sandwich ELISA, using monoclonal 266 as a capture antibody and biotinylated 3D6 as reporting antibody. (See May, et al., Journal of Neuroscience, 31, 16507-16516 (2011)).
For acute studies, compound or appropriate vehicle is administered and animals are sacrificed at about 3 hours after dosing. Brain tissue, is obtained from selected animals and analyzed for the presence of Abeta 1-x. After chronic dosing brain tissues of older APP transgenic animals may also be analyzed for the amount of beta-amyloid plaques following compound treatment.

The mark [4] stands for this setting: Abeta 1-40, Mean ± SEM, read-out: PDAPP Neuron A-beta (1-40) ELISA IC50.
The mark [5] stands for this setting: Abeta 1-42, Mean ± SEM, read-out: PDAPP Neuron A-beta (1-42) ELISA IC50.

Structures can show the parent of a compound that is named as a salt. Where two headings read alike, the source gives them in different places.

Chain of human BACE1 (1-460):Fc (P56817 22-460): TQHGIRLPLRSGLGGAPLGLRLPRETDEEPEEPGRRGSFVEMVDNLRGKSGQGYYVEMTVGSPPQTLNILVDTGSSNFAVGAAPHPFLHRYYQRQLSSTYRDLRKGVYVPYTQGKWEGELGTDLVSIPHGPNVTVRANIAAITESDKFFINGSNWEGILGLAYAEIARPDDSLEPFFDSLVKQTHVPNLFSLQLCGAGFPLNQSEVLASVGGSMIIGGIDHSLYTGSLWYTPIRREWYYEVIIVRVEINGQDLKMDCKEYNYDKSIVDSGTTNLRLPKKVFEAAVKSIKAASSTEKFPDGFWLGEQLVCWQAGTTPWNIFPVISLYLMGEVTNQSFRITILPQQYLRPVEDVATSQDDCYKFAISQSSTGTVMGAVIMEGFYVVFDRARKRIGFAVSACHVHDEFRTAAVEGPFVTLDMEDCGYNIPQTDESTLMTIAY

`NC1=N[C@@]2(c3cc(NC(=O)c4cnc(OCC5(F)CC5)cn4)ccc3F)COC[C@@]2(F)CO1` [Example 57, N-[3-[(4aR,7aS)-2-Amino-4a-fluoro-5,7-dihydro-4H-furo[3,4-d][1,3]oxazin-7a-yl]-4-fluoro-phenyl]-5-[(1-fluorocyclopropyl)methoxy]pyrazine-2-carboxamide hydrochloride]: the figures for the IC50 in experiment [1], in experiment [2] (setting [4]) and in experiment [2] (setting [5]) were 25.7 nM, 186 nM and 182 nM, respectively.
`COc1cnc(C(=O)Nc2ccc(F)c([C@]34COC[C@@]3(F)CSC(N)=N4)c2)cn1.Cl` [Example 2, N-[3-[(4aR,7aS)-2-Amino-4a-fluoro-5,7-dihydro-4H-furo[3,4-d][1,3]thiazin-7a-yl]-4-fluoro-phenyl]-5-methoxy-pyrazine-2-carboxamide hydrochloride]: the IC50 in experiment [2] (setting [4]) stood at 29.5 nM; in experiment [2] (setting [5]), 21.9 nM. Besides, the “Abeta 1-x peptide levels reduced in brain cortex” value in experiment [3] (10 mg/kg oral dose) is on record as “approximately 45%”; in experiment [3] (30 mg/kg oral dose), “approximately 54%”. Moreover, the “Abeta 1-x peptide levels reduced in brain hippocampus” value in experiment [3] (10 mg/kg oral dose) is “approximately 40%”; in experiment [3] (30 mg/kg oral dose) it was “approximately 52%”.
With `Cl.NC1=N[C@@]2(c3cc(NC(=O)c4ccc(F)cn4)ccc3F)COC[C@@]2(F)CS1` [Example 1, N-[3-[(4aR,7aS)-2-Amino-4a-fluoro-5,7-dihydro-4H-furo[3,4-d][1,3]thiazin-7a-yl]-4-fluoro-phenyl]-5-fluoro-pyridine-2-carboxamide hydrochloride], the concentration for half-maximal inhibition (IC50) in experiment [1] came out at 15.6 nM; in experiment [2] (setting [4]) it was 83.3 nM; in experiment [2] (setting [5]) it was 76.8 nM. For the same compound, the “Abeta 1-x peptide levels reduced in brain cortex” value in experiment [3] (30 mg/kg oral dose) is recorded as “approximately 48%”. The “Abeta 1-x peptide levels reduced in brain hippocampus” value in experiment [3] (30 mg/kg oral dose) is reported as “approximately 37%”.
`Cl.N#Cc1ccc(C(=O)Nc2ccc(F)c([C@]34COC[C@@]3(F)COC(N)=N4)c2)nc1` [Example 34, N-[3-[(4aR,7aS)-2-Amino-4a-fluoro-5,7-dihydro-4H-furo[3,4-d][1,3]oxazin-7a-yl]-4-fluoro-phenyl]-5-cyano-pyridine-2-carboxamide hydrochloride]: the IC50 in experiment [1] came out at 45 nM; in experiment [2] (setting [4]) it was 49.9 nM; in experiment [2] (setting [5]) it was 36.5 nM. In addition, the “Abeta 1-x peptide levels reduced in brain hippocampus” value in experiment [3] (10 mg/kg oral dose) was “approximately 26%”.
Take `Cl.N#Cc1ccc(C(=O)Nc2ccc(F)c([C@]34COC[C@@]3(F)CSC(N)=N4)c2)nc1` [Example 3, N-[3-[(4aR,7aS)-2-Amino-4a-fluoro-5,7-dihydro-4H-furo[3,4-d][1,3]thiazin-7a-yl]-4-fluoro-phenyl]-5-cyano-pyridine-2-carboxamide hydrochloride]: the IC50 in experiment [1] was 6.66 nM; in experiment [2] (setting [4]) it was 20.2 nM; in experiment [2] (setting [5]) it was 16.3 nM. The “Abeta 1-x peptide levels reduced in brain cortex” value in experiment [3] (10 mg/kg oral dose) is “approximately 46%”. Moreover, in experiment [3] (10 mg/kg oral dose), the “Abeta 1-x peptide levels reduced in brain hippocampus” value is recorded as “approximately 34%”.

These data come from patent US9029367B2, “BACE inhibitors” (Eli Lilly and Company, priority 2013, dated 2015).
